Test in all cases: NCI anticancer screen, dose series, 48 h
For experiment [1], the system named is NCI-H522 lung.
Experiment [2] concerns MCF7 breast.
Experiment [3] deals with CCRF-CEM leukemia.
The test system of experiment [4] is HOP-92 NSCLC.
Experiment [5] has as its system SNB-19 CNS.
Experiment [6] has as its system NCI-H23 lung.
Experiment [7] concerns COLO 205 colon.
The subject of experiment [8] is HS 578T breast.
For experiment [9], the system named is M14 melanoma.
For experiment [10], the system named is HT29 colon.

For three compounds, GI50 and TGI results are on record in PubChem BioAssay (NCI).

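All cell lines were grown in 96-well plates and treated with compound for 48 hours. GI50 = concentration required for 50% inhibition of growth. TGI marks complete inhibition of growth.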 Bounds are passed on as bounds.

With `O=S(=O)(NCCCNc1nccc(-c2c(-c3ccc(F)c(O)c3)nc3sccn23)n1)c1ccc(F)cc1`, the GI50 in [1] is 1.93 µM; in experiment [2], 2.39 µM; in experiment [3] it was 1.58 µM; in experiment [4], 1.46 µM; in [5] it was 3.33 µM; in experiment [6] it was 2.31 µM. The GI50 in experiment [7] was 1.48 µM; in experiment [8], 2.62 µM; in experiment [9] it was 0.0481 µM; in [10] it was 2.94 µM. In addition, the TGI in experiment [1] was 6.04 µM; in experiment [2] it was 7.76 µM; in experiment [3], 6.07 µM; in experiment [4] it was 6.24 µM; in [5] it was more than 100 µM; in [6] it was 7.39 µM. Also, the TGI in [7] amounted to 9.67 µM; in experiment [8], 7.07 µM; in [9] it was 3.14 µM; in [10], 37.8 µM.

`COC(=O)c1cc2c3ccccc3n3c(=O)c4cc5ccccc5nc4c(n1)c23`: the GI50 in experiment [1], in experiment [2], in experiment [3], in experiment [4], in [5] and in experiment [6] was more than 100 µM in each case. The GI50 in [7], in experiment [8], in experiment [9] and in [10] was more than 100 µM in each case. The TGI in experiment [1], in experiment [2], in [3], in experiment [4], in experiment [5] and in [6] was more than 100 µM in each case. In addition, the TGI in experiment [7], in experiment [8], in experiment [9] and in [10] was more than 100 µM throughout.

On to `CC(C)C[C@H](NC(=O)Cn1ccc(NCc2ccccc2)cc1=O)B(O)O`, for which the GI50 in [1] was 0.691 µM; in experiment [2], 0.413 µM; in experiment [3], 0.511 µM; in experiment [4] it was 2.39 µM; in experiment [5], 4.96 µM; in experiment [6], 5.01 µM. Besides, the GI50 in [7] was 2.48 µM; in [8], 3.33 µM; in experiment [9] it was 1.35 µM; in [10], 0.814 µM. The TGI in experiment [1] is 3.08 µM; in [2] it was more than 100 µM; in experiment [3] it was more than 100 µM; in [4] it was 8.35 µM; in [5] it was more than 100 µM; in [6] it was more than 100 µM. Also, the TGI is more than 100 µM in [7], 85.3 µM in experiment [8], 7.08 µM in experiment [9] and 8.41 µM in [10].
